Assay results published in a melting point compilation (Tetko et al.).

Row | melting point [°C] | Compound
1 | 105 | O=C(OOC(=O)c1ccccc1)c1ccccc1
2 | 158 | Cn1c(=O)c2c(ncn2CCO)n(C)c1=O
3 | -13 | CC(=O)CCc1ccccc1
4 | 175 | Nc1cc(N)c(/C=C/c2ccccc2)c([N+](=O)[O-])c1C=Cc1ccccc1
5 | 77 | CN(C)c1ccc(O)cc1
6 | 213 | CC(=O)OC1(C(C)=O)CCC2C3C=C(Cl)C4=CC(=O)CCC4(C)C3CCC21C (centres undefined)
7 | 110 | c1ccc(-c2ccc3ncccc3c2)cc1
8 | 78 | CC(C)(C)OC(=O)NC(Cc1cccc(F)c1)C(=O)O (centres undefined)
9 | 121 to 122 | CC(C)(C)OC(=O)N1c2ccccc2CC1C(=O)O (centres undefined)
10 | 62 to 63 | N#CC(c1ccccc1)N1CCCCC1 (centres undefined)
11 | 149 to 154 | CC(=O)Nc1ccc(S)cc1
12 | 163 | CC(C)(C)c1nnc(NS(=O)(=O)c2ccccc2)s1
13 | 134 | c1ccc(C2=NC(c3ccccc3)C(c3ccccc3)N2)cc1 (centres undefined)
14 | 221 | O=C(O)c1ccc(O)c(O)c1O
15 | 92 | O=C(CCCN1CCN(c2ccccn2)CC1)c1ccc(F)cc1
16 | 223 to 225 | O=C(O)CSc1ccnc2cc(Cl)ccc12
17 | 170 to 171 | CC1=C(C(=O)OCC(C)C)C(c2ccco2)NC(=O)N1 (centres undefined)
18 | 119 to 124 | CN(C)c1ccc(N)c([N+](=O)[O-])c1
19 | 111 | O=C(O)CCSc1ccc(Br)cc1
20 | 253 | CC1CCc2cc(F)cc3c(=O)c(C(=O)O)cn1c23 (centres undefined)
21 | 77 to 78 | COC(=O)c1ccc([N+](=O)[O-])cc1Cl
22 | 70 to 73 | CCOC(=O)c1ccc(Oc2ccc(C)nn2)cc1
23 | -55 | C[Si](C)(C)Oc1ccccc1
24 | 146 to 149 | O=C1CC(=O)CC(c2ccco2)C1

Row | melting point [°C] | Compound
25 | 70 | O=CC(Br)=Cc1ccccc1
26 | -32.2 | CCCCN(CCCC)c1ccccc1
27 | 185 to 186 | COc1ccccc1NC(=S)c1cc(C(C)(C)C)c(O)c(C(C)(C)C)c1
28 | 48 | Cc1ccc(S(=O)(=O)C#N)cc1
29 | 140 | ON=C(c1ccc(F)cc1)c1ccc(F)cc1
30 | 174 to 176 | CC(=O)Nc1c(C)cc(Cl)cc1Cl
31 | 29 to 31 | FC(F)(F)c1cc(Cl)ccc1I
32 | 164 | O=C(C=Cc1ccc([N+](=O)[O-])cc1)c1ccccc1
33 | 101 | O=C(c1ccccc1)c1ccc2c3c(cccc13)CC2
34 | 181 to 187 | O=[N+]([O-])c1ccc(-n2ncc3cccnc32)c([N+](=O)[O-])c1
35 | 150 | COc1ccc(N/N=C(\C#N)c2nc(-c3ccccc3)cs2)cc1
36 | 84 to 85 | N#Cc1cccc(N2CCCC2)c1
37 | 177 | CCOC(=O)Oc1c(OC)cc(C(=O)OC2CC3CN4CCc5c([nH]c6cc(OC)ccc56)C4CC3C(C(=O)OC)C2OC)cc1OC (centres undefined)
38 | 238 | N#C/C(=N\Nc1cccc(O)c1)c1nc2ccccc2[nH]1
39 | 187 | O=C(O)C[C@H](NC(=O)OCC1c2ccccc2-c2ccccc21)c1ccccc1
40 | 85 to 86 | Cc1nc(-c2ccc(C(F)(F)F)cc2)sc1C(=O)Cl
41 | 154 to 155 | CC(C)(C)n1nc(-c2ccc(Cl)cc2)c(C#N)c1N
42 | 194 to 196 | CSc1nc(N=Cc2ccc([N+](=O)[O-])cc2)nn1C
43 | 69 to 70 | C[C@]12C=C[C@H](O1)[C@H]1C(=O)OC(=O)[C@H]12
44 | 57 | BrCc1cccc(-c2cccs2)c1
45 | 181 | CCOC(=O)c1c(SC)nn(-c2ccc([N+](=O)[O-])cc2)c1N
46 | 103 to 105 | CC(C)Nc1ccc(C(F)(F)F)cc1[N+](=O)[O-]
47 | 105 | Cc1nc2ccccc2nc1C
48 | 80 | O=C1C(Br)C2c3ccccc3C(C1Br)C(Br)C(=O)C2Br (centres undefined)

Continued, compound first:

Row | Compound | melting point [°C]
49 | CNC(=O)Oc1ccc2c(c1)C1(C)CCN(C)OC1N2C (centres undefined) | 129
50 | FC(F)(F)C(F)(F)C(F)(F)C(F)(F)C(F)(F)C(F)(F)C(F)(F)C(F)(F)C(F)(F)C(F)(F)C(F)(F)C(F)(F)I | 99 to 101
51 | O=[N+]([O-])OC(CO)CO | 54
52 | FC(F)(F)OC(F)(I)C(F)(F)F (centres undefined) | 44
53 | CC(C)(C)c1cc(N=Nc2cc(C(C)(C)C)cc(C(C)(C)C)c2O)c(O)c(C(C)(C)C)c1 | 246 to 247
54 | O=C(N(Cc1ccccc1)Cc1ccccc1)C(F)(F)C(F)(F)C(F)(F)C(F)(F)C(F)(F)C(F)(F)C(F)(F)C(F)(F)F | 49
55 | CCC1CN2CCC1CC2C(O)c1ccnc2ccccc12 (centres undefined) | 268
56 | CN1CCCN(C)C1=O | -20
57 | CCCCCC(O)CC(=O)CCc1ccc(OC)c(O)c1 (centres undefined) | 31
58 | O=CNC(O)C(Cl)(Cl)Cl (centres undefined) | 120
59 | CC(=O)c1c(C(C)C)cc(C(C)C)cc1C(C)C | 87
60 | Cc1cnc(Cl)c(N)c1 | 82 to 87
61 | COC(=O)C(F)(F)C(F)(F)C(F)(F)F | -86
62 | Clc1cc(Cl)cc(C2(CC(Cl)(Cl)Cl)CO2)c1 (centres undefined) | 42.8
63 | OCC1CCN(c2ncccn2)CC1 | 52 to 54
64 | COc1cc(C=CC(=O)O)cc(Br)c1O | 256
65 | CC(C)(CO)NCC(O)CS(=O)(=O)O (centres undefined) | 215 to 225
66 | CCCCCCCCOc1ccc(C(C)=O)cc1 | 30 to 32
67 | O=[N+]([O-])c1cc(Br)cc2c1NCC2 | 131
68 | Cc1cccc(C)c1NC(N)=S | 195
69 | CC1Cc2c(Cl)cc(C(=O)NC(Cc3ccccc3)C(=O)O)c(O)c2C(=O)O1 (centres undefined) | 169

Row | Compound | melting point [°C]
70 | CC1(C)CC(O)CC(C)(CN)C1 (centres undefined) | 45.5
71 | O=C(O)C(Br)C(Br)C(=O)O (centres undefined) | 275
72 | CC(C)NC(=O)CC#N | 62 to 65
73 | CCOC(=O)c1c(C)nc2sc3c(c2c1N)CCCC3 | 135 to 136
74 | CN(c1c(Br)cc(Br)cc1Br)c1c([N+](=O)[O-])cc([N+](=O)[O-])cc1C(F)(F)F | 150
75 | O=C1CCCC(O)=C1Cl | 198 to 204
76 | COC(=O)c1cocc1C(=O)OC | 42 to 47
77 | CCN(CC)CCc1c[nH]c2ccccc12 | 170
78 | CCC1(c2ccc(N)cc2)CCC(=O)NC1=O (centres undefined) | 150
79 | CCOC(=O)c1sc(SC)c2c1CCCC2=O | 108 to 111
80 | Ic1ccc2c(c1)Oc1ccccc1O2 | 95
81 | CCCCSC(=Nc1cccnc1)SCc1ccc(C(C)(C)C)cc1 | 32
82 | CCN(CC)C(=O)C(C)Oc1cccc2ccccc12 (centres undefined) | 75
83 | Nc1ccccc1Cl | -3
84 | Clc1cccc2c1Oc1ccccc1O2 | 104
85 | CCCCCCCC(=O)NO | 78.8
86 | NS(=O)(=O)c1cc(C(=O)O)c(Cl)cc1Cl | 230 to 234
87 | Cn1ccnc1I | 87 to 89
88 | CC(C)C1CCC(Cc2ccc(Cl)cc2)C1(O)Cn1cncn1 (centres undefined) | 89
89 | CCCCCCCCCC(=O)CCCCCCCCC | 65.5
